System: Karpas cells
Assay: Detection of surface protein combinations of the protein network on untreated (V1) and actinonin-treated (V2) Karpas cells
Type: cell-based
Details: for V2 no. of cells / V2 no. of cells In 1/1OOO: actinonin-treated Karpas cells
Text: Principally, detecting of the surface protein combinations may comprise procedural steps of an automated method for determining molecular classes, molecular groups or molecular parts in a solid or liquid object according to DE 197 09 348 C. In these steps, surface proteins may be examined and measured in one and the same object, i.e. in a sample of immune cells and/or tumor cells for example, by sequentially applying reagent solutions Yn (n=1,2,3, . . . N) by means of an automated apparatus, said procedural steps being: I. taking a first reagent solution Y1 from a vessel containing the reagent solution, II. applying said reagent solution Y1 to the object which is on an object slide, III. allowing the reagent solution to react for an automatically set period of time, IV. recording at least one individual labeling pattern of the object previously labeled with said first reagent solution Y1, V. repeating steps I-IV by applying said first reagent solution Y1 or a second reagent solution Y2 or a mixture of said first and second reagent solutions, and VI. repeating steps I to V with further reagent solutions Yn (n=2,3, . . . N) or a mixture thereof and whereby the labeling distribution patterns obtained in each cycle of the method are turned into a complex molecular combination pattern of the object to be examined by computer-aided image overlay. From this combination pattern, information may be gained on the presence of the above mentioned proteins, thus also allowing detection of the surface protein combinations, if the reagent solutions used contain labeled substances directed against the proteins in question. In numerous examinations, it was possible to identify the 30 cell surface proteins already listed above which belong to a specific protein network controlling the early polarization stages of tumor cells and immune cells. In a further examination, surface protein combinations of this protein network of Karpas cells were detected, both in untreated form and after treatment with the aminopeptidase inhibitor actinonin. For this purpose, two groups V1 and V2 of Karpas cells were formed, with the cells of group Vl remaining untreated, while the cells of group V2 were treated with actinonin. Table 2 lists those surface protein combinations which are present both in the actinonin-treated cells and in the untreated cells. However, this table and the further tables 3 and 4 only give examples of 18 of the 30 proteins, with the detected proteins being designated 1 and the non-detected proteins being designated 0. The proteins are continuously numbered 1 to 18, with the nomenclature being notable from table 1. [table] The cell numbers stated in tables 2 to 4 refer to each 1,000 cells examined in groups V1 and V2. Table 3 lists the surface protein combinations which only occur in the untreated Karpas cells and are never found in the actinonin-treated Karpas cells. The number of protein combinations listed in this table 3 amounts to 131. Finally, table 4 exclusively lists those surface protein combinations which occur exclusively in the actinonin-treated Karpas cells. It may be gathered from tables 2 to 4 that, if one examines merely 18 proteins of the 30 proteins, a total of 394 different surface protein combinations will occur, with a total of 334 different combinations occurring in the untreated cells and a total of 263 different combinations being detected in the treated cells.

In the case of `CCCCC[C@H](CC(=O)NO)C(=O)N[C@H](C(=O)N1CCC[C@H]1CO)C(C)C` [actinonin], the “V2 no. of cells” value (protein code No. 54, proteins 1-18 binary 011000001100001100) is reported as 1.5 1/1OOO, the “V2 no. of cells” value (protein code No. 55, proteins 1-18 binary 001000010100001000) is reported as 2.0 1/1OOO and the “V2 no. of cells” value (protein code No. 57, proteins 1-18 binary 101100110111011000) is reported as 2.4 1/1OOO. For the same molecule, the “V2 no. of cells” value (protein code No. 58 (first line so numbered), proteins 1-18 binary 001100011101001000) was 1.7 1/1OOO, the “V2 no. of cells” value (protein code No. 58 (second line so numbered), proteins 1-18 binary 000000011101000000) was 2.9 1/1OOO and the “V2 no. of cells” value (protein code No. 59, proteins 1-18 binary 101100010111001000) was 1.5 1/1OOO. For the same molecule, the “V2 no. of cells” value (protein code No. 60, proteins 1-18 binary 001000000101001000) was 1.5 1/1OOO, the “V2 no. of cells” value (protein code No. 61, proteins 1-18 binary 000000010111001000) was 1.6 1/1OOO and the “V2 no. of cells” value (protein code No. 62, proteins 1-18 binary 001000000001001000) was 0.6 1/1OOO. For the same molecule, the “V2 no. of cells” value (protein code No. 63, proteins 1-18 binary 000000010100001000) was 1.6 1/1OOO, the “V2 no. of cells” value (protein code No. 64, proteins 1-18 binary 000000011001000000) was 2.1 1/1OOO and the “V2 no. of cells” value (protein code No. 65, proteins 1-18 binary 000000000011000000) was 0.7 1/1OOO. For the same molecule, the “V2 no. of cells” value (protein code No. 66, proteins 1-18 binary 101000010101011000) was 1.0 1/1OOO, the “V2 no. of cells” value (protein code No. 67, proteins 1-18 binary 001100011111011000) was 1.8 1/1OOO and the “V2 no. of cells” value (protein code No. 68, proteins 1-18 binary 000000000010000000) was 0.1 1/1OOO. The “V2 no. of cells” value (protein code No. 69, proteins 1-18 binary 001000000011000000) was 1.2 1/1OOO, the “V2 no. of cells” value (protein code No. 70, proteins 1-18 binary 010000001100000100) was 1.5 1/1OOO and the “V2 no. of cells In 1/1OOO” value (surface protein combination No. 93, binary code 011100011101001000) was 0.7 1/1OOO. The “V2 no. of cells In 1/1OOO” value (surface protein combination No. 94, binary code 000000011000000000) was 1.0 1/1OOO, the “V2 no. of cells In 1/1OOO” value (surface protein combination No. 95, binary code 000000001101000000) was 1.4 1/1OOO and the “V2 no. of cells In 1/1OOO” value (surface protein combination No. 96, binary code 001100011101011000) was 0.3 1/1OOO. For the same molecule, the “V2 no. of cells In 1/1OOO” value (surface protein combination No. 97, binary code 011000011101001100) was 0.7 1/1OOO, the “V2 no. of cells In 1/1OOO” value (surface protein combination No. 98, binary code 011000011100001100) was 0.9 1/1OOO and the “V2 no. of cells In 1/1OOO” value (surface protein combination No. 99, binary code 000000011101001000) was 0.9 1/1OOO. For the same molecule, the “V2 no. of cells In 1/1OOO” value (surface protein combination No. 100, binary code 010000001000000000) was 0.3 1/1OOO, the “V2 no. of cells In 1/1OOO” value (surface protein combination No. 101, binary code 010000011101000000) was 0.5 1/1OOO and the “V2 no. of cells In 1/1OOO” value (surface protein combination No. 102, binary code 001100010101011100) was 0.6 1/1OOO. For the same molecule, the “V2 no. of cells In 1/1OOO” value (surface protein combination No. 103, binary code 011000011001000000) was 0.7 1/1OOO, the “V2 no. of cells In 1/1OOO” value (surface protein combination No. 104, binary code 001000001001000000) was 0.8 1/1OOO and the “V2 no. of cells In 1/1OOO” value (surface protein combination No. 105, binary code 000000010111000000) was 0.9 1/1OOO. The “V2 no. of cells In 1/1OOO” value (surface protein combination No. 107, binary code 000100010001001000) was 0.2 1/1OOO, the “V2 no. of cells In 1/1OOO” value (surface protein combination No. 109, binary code 000100000000000000) was 0.6 1/1OOO and the “V2 no. of cells In 1/1OOO” value (surface protein combination No. 110, binary code 011000011111001000) was 0.8 1/1OOO. For the same molecule, the “V2 no. of cells In 1/1OOO” value (surface protein combination No. 111, binary code 001000000100000000) was 0.8 1/1OOO, the “V2 no. of cells In 1/1OOO” value (surface protein combination No. 112, binary code 101000010111001000) was 0.2 1/1OOO and the “V2 no. of cells In 1/1OOO” value (surface protein combination No. 113, binary code 011000011111011000) was 0.2 1/1OOO. For the same molecule, the “V2 no. of cells In 1/1OOO” value (surface protein combination No. 114, binary code 011000001100000000) was 0.2 1/1OOO, the “V2 no. of cells In 1/1OOO” value (surface protein combination No. 115, binary code 001000000111001000) was 0.3 1/1OOO and the “V2 no. of cells In 1/1OOO” value (surface protein combination No. 116, binary code 101100010101001000) was 0.6 1/1OOO. The “V2 no. of cells In 1/1OOO” value (surface protein combination No. 117, binary code 101100010011011000) was 0.6 1/1OOO, the “V2 no. of cells In 1/1OOO” value (surface protein combination No. 118, binary code 101100110111011100) was 0.7 1/1OOO and the “V2 no. of cells In 1/1OOO” value (surface protein combination No. 119, binary code 000000010010000000) was 0.1 1/1OOO. The “V2 no. of cells In 1/1OOO” value (surface protein combination No. 120, binary code 011100011111011000) was 0.2 1/1OOO, the “V2 no. of cells In 1/1OOO” value (surface protein combination No. 121, binary code 001000011011001000) was 0.2 1/1OOO and the “V2 no. of cells In 1/1OOO” value (surface protein combination No. 122, binary code 011000001100000100) was 0.3 1/1OOO. For the same molecule, the “V2 no. of cells In 1/1OOO” value (surface protein combination No. 123, binary code 000000001100001000) was 0.3 1/1OOO, the “V2 no. of cells In 1/1OOO” value (surface protein combination No. 124, binary code 110000001100001100) was 0.5 1/1OOO and the “V2 no. of cells In 1/1OOO” value (surface protein combination No. 125, binary code 010000011100001000) was 0.5 1/1OOO. For the same molecule, the “V2 no. of cells In 1/1OOO” value (surface protein combination No. 126, binary code 001000110111011000) was 0.5 1/1OOO, the “V2 no. of cells In 1/1OOO” value (surface protein combination No. 127, binary code 001000011111000000) was 0.5 1/1OOO and the “V2 no. of cells In 1/1OOO” value (surface protein combination No. 128, binary code 111000001100001100) was 0.7 1/1OOO. The “V2 no. of cells In 1/1OOO” value (surface protein combination No. 129, binary code 011000011100001000) was 0.7 1/1OOO, the “V2 no. of cells In 1/1OOO” value (surface protein combination No. 130, binary code 101100010101011100) was 0.2 1/1OOO and the “V2 no. of cells In 1/1OOO” value (surface protein combination No. 131, binary code 101000010101001000) was 0.3 1/1OOO. For the same molecule, the “V2 no. of cells In 1/1OOO” value (surface protein combination No. 134, binary code 010000011100001100) was 0.5 1/1OOO, the “V2 no. of cells In 1/1OOO” value (surface protein combination No. 135, binary code 010000011100000000) was 0.5 1/1OOO and the “V2 no. of cells In 1/1OOO” value (surface protein combination No. 136, binary code 001100010101001100) was 0.5 1/1OOO. For the same molecule, the “V2 no. of cells In 1/1OOO” value (surface protein combination No. 137, binary code 001100000000001000) was 0.5 1/1OOO, the “V2 no. of cells In 1/1OOO” value (surface protein combination No. 138, binary code 000000001001001000) was 0.6 1/1OOO and the “V2 no. of cells In 1/1OOO” value (surface protein combination No. 139, binary code 011000001101000000) was 0.1 1/1OOO. For the same molecule, the “V2 no. of cells In 1/1OOO” value (surface protein combination No. 140, binary code 000000000011001000) was 0.1 1/1OOO, the “V2 no. of cells In 1/1OOO” value (surface protein combination No. 141, binary code 101000010111011100) was 0.2 1/1OOO and the “V2 no. of cells In 1/1OOO” value (surface protein combination No. 142, binary code 001100000101001000) was 0.2 1/1OOO. The “V2 no. of cells In 1/1OOO” value (surface protein combination No. 143, binary code 011100011111001000) was 0.3 1/1OOO, the “V2 no. of cells In 1/1OOO” value (surface protein combination No. 144, binary code 001100010111000000) was 0.3 1/1OOO and the “V2 no. of cells In 1/1OOO” value (surface protein combination No. 145, binary code 001000000100001000) was 0.3 1/1OOO. For the same molecule, the “V2 no. of cells In 1/1OOO” value (surface protein combination No. 146, binary code 011000011001001000) was 0.5 1/1OOO, the “V2 no. of cells In 1/1OOO” value (surface protein combination No. 147, binary code 111100011100011100) was 0.1 1/1OOO and the “V2 no. of cells In 1/1OOO” value (surface protein combination No. 148, binary code 110000001100011100) was 0.1 1/1OOO. The “V2 No. of cells In 1/1000, total” value (total over the 60 combinations occurring exclusively in actinonin-treated Karpas cells) was 9.1 1/1000.
